Experimental data reported in patent US7763669B2, “Low-viscosity, radiation-curable formulation for producing adaptive earpieces” (Dreve-Otoplastik GmbH, priority 2004, dated 2010).

Assays:
[1] = Flexural strength, modulus of elasticity and elongation per EN ISO 178 (Zwick 1 test unit) on post-cured test pieces; format: physicochemical
Procedure: The flexural strength, modulus of elasticity, and elongation were determined in accordance with EN ISO 178 (1996), using a Zwick 1 test unit from Zwick. The test pieces were post-cured for 2×7 min, using the PCU stroboscope irradiation unit from Dreve.
(§1) Table 2 lists the parameters for the above-described resins that are relevant for the stereolithographic process. All viscosity measurements were performed at 23° C. using a CVO rheometer from Bohlin Instruments. The flexural strength, modulus of elasticity, and elongation were determined in accordance with EN ISO 178 (1996), using a Zwick 1 test unit from Zwick. For determining the Ec and Dp values using the above-described windowpane method, in each case the average values were determined for 10 windowpane test pieces. The test pieces were produced using a Viper si2 SLA system (3D Systems) equipped with a Nd:YVO4 solid-state laser. The green compacts were post-cured for 2×7 min, using the Fototec PCU stroboscope irradiation unit from Dreve.

[2] = Windowpane method for critical energy Ec and laser penetration depth Dp; format: physicochemical; details: small quantities added to resin formulation; for Influence of inhibitor addition on penetration depth of the laser beam Dp: FIGS. 3 and 5; for Influence of inhibitor addition on critical energy Ec: FIGS. 4 and 6
Procedure: The influence of the concentration of phenothiazine (PTZ) and 2,2-diphenyl-1-picrylhydrazyl radical (DPPH) in the formulations of Examples 1 and 2 on the penetration depth of the laser beam and the critical energy is illustrated in FIGS. 3 through 6. The laser penetration depth and the critical energy were determined using the windowpane method described by P. F. Jacobs and D. T. Reid in Rapid Prototyping & Manufacturing, Society of Manufacturing Engineers, Dearborn, Mich., 1992, 1st Ed., pp. 263-280. […] This influence of the inhibitors phenothiazine (PTZ) and 2,2-diphenyl-1-picrylhydrazyl radical (DPPH) on the is relevant parameter Ec (critical energy, mJ·cm^−2) and Dp (laser penetration depth, mils) for the stereolithographic resin differs from the influence of the inhibitors, such as p-methoxyphenol, added to the stereolithographic resins corresponding to the prior art (L. E. Levy, J. Polym. Sci., Part A, Polym. Chem. 30 (1992), 569ff). For example, in comparison to p-methoxyphenol the parameters Ec and Dp may be linearly adjusted in a wider range by small concentrations of the inhibitors. This is of great advantage, particularly for the production of such resins and adjustment of the above-described parameters. From a technical production standpoint this may be used to adjust the laser penetration depth that has a direct influence on the accuracy of the production process. For example, performing curing over a value of laser penetration depth that exceeds the desired layer thickness for the process reduces the resolution of the process. High values of the laser penetration depth play an important role in particular for transparent stereolithographic resins that preferably are used for producing otoplastic parts. In the case of stereolithographic resins in the medical field, however, in particular stereolithographic resins for the production of the above-described adaptive earpieces, the accuracy of the production, and thus, the fit, of the molded body is of paramount importance.
as §1

[3] = resin formulation from Example 2, inhibitor concentration 0.01 % by wt.
[4] = resin formulation from Example 2, inhibitor concentration 0.025 % by wt.
[5] = resin formulation from Example 2, inhibitor concentration 0.05 % by wt.
[6] = resin formulation from Example 2, inhibitor concentration 0.10 % by wt.
[7] = resin formulation from Example 2, inhibitor concentration 0.15 % by wt.

Elongation to break [1, 3] | Flexural strength [1, 3] | Modulus of elasticity [1, 3] | Molecule | Elongation to break [1, 4] | Flexural strength [1, 4] | Modulus of elasticity [1, 4] | Elongation to break [1, 5] | Flexural strength [1, 5] | Modulus of elasticity [1, 5] | Influence of inhibitor addition on penetration depth of the laser beam Dp [2] | Influence of inhibitor addition on critical energy Ec [2] | Elongation to break [1, 6] | Flexural strength [1, 6] | Modulus of elasticity [1, 6] | Elongation to break [1, 7] | Flexural strength [1, 7] | Modulus of elasticity [1, 7]
13% | 61 N · mm^−2 | 1452 N · mm^−2 | 2,2-diphenyl-1-picrylhydrazyl radical [DPPH] | 11% | 69 N · mm^−2 | 1324 N · mm^−2 | 10% | 66 N · mm^−2 | 1277 N · mm^−2 | linear decrease | sharp, essentially linear increase |  |  |  |  |  | 
 |  |  | c1ccc2c(c1)Nc1ccccc1S2 [Phenothiazine, phenothiazine] | 15% | 95 N · mm^−2 | 1867 N · mm^−2 | 13% | 95 N · mm^−2 | 1989 N · mm^−2 | linear decrease | sharp, essentially linear increase | 12% | 101 N · mm^−2 | 2007 N · mm^−2 | 10% | 89 N · mm^−2 | 1832 N · mm^−2
